{
  "source": "patent US20070202165A1",
  "about": "“Method for a supplemental dietary composition having a multi-phase dissolution profile” (priority 2006, published 2007)",
  "assay_type_in_all_cases": "physicochemical",
  "key": {"[1]": {"assay": "Time to dissolve in water, estimated by visual inspection, regular vs fine-milled ingredients", "details": "for Time taken to dissolve: 100 mL water, magnetic stirring", "procedure": "In order to determine the effect of fine-milling on the dissolution rate, initial testing was performed to examine the rate of dissolution of common supplemental dietary ingredients. For the purposes of this disclosure, the term “regular” as used herein makes reference to non-fine-milled particles. 100 mL of water was placed into a 250 mL beaker and a magnetic stirrer bar was added to the beaker. The beaker was then placed on a magnetic stirrer was set to constant speed. […] The time required to dissolve was estimated by visual inspection. Equal amounts of the fine-milled ingredients were then added to the water and the time required to dissolve was estimated by visual inspection."}, "[2]": {"assay": "Kinetic dissolution experiment: samples filtered at 1 and 5 minutes", "details": "for weight of unfiltered sample: 1 g in 50 mL water, Whateman 41 filter", "procedure": "In order to expand on the results of the aforenoted experiments, a kinetic experiment was conducted to examine the change in the dissolution rate over short time periods.\n1 g of sample was added to 50 mL water in a flask with a magnetic stir bar on a stirrer set at constant speed. Separate samples were filtered at 1 and 5 minutes. The pre-weighed filter papers (Whateman 41, particle retention 20-25 μm) were allowed to dry and the amount of sample remaining on the filter paper was determined."}, "[3]": {"assay": "Solubility test with filtration: amount dissolved until saturated and dry powder remaining on filter paper", "details": "gravity filtration, filter paper dried", "method": "A second experiment relating to fine-milling and potential increase in bioavailability was conducted. In order to test the capacity of fine-milling to improve the rate bioavailability of substances, a simple test was performed. The test was conceived to mimic various elements involved in the processes of oral administration of a nutritional supplement. The key parameters involved were rate of dissolution and solubility, as it is understood that an ingested nutrient must be dissolved or reduced to a bio-transportable size in order to be utilized biochemically by the body.\nThe rates of dissolution and solubility of regular common nutritional supplements were compared to fine-milled versions within a fixed time.\n100 mL of water was added to a 250 mL beaker and a magnetic stirring bar was placed in the beaker. The beaker was placed on a magnetic stirrer and stirred with low speed. 1 g of a given supplemental dietary ingredient powder was added incrementally to the beaker with the stirring speed constant until the solution visually appeared saturated. […]\nThe ‘Fold Change’ represents the change in the amount of substance unable to pass through the filter as calculated by the amount of unfiltered regular substance divided by the amount of unfiltered fine-milled substance and represents the potential theoretical improvement in bioavailability."}},
  "note": "“Also recorded” adds a separate entry of the source.",
  "data": [
    {"smiles": "CN(CC(=O)O)C(=N)N.O", "note": "[Creatine Monohydrate]", "values": [
      {"measurement": "Time taken to dissolve", "setting": "[1]; Powder type Fine-milled", "result": "<5", "unit": "min"},
      {"measurement": "Time taken to dissolve", "setting": "[1]; Powder type Regular (non-fine-milled)", "result": "<5", "unit": "min"},
      {"measurement": "Dissolution of fine-milled compared with regular ingredient (in words)", "setting": "[1]; fine-milled vs regular, Monohydrate", "result": "dissolved at the same rate in both the fine-milled and regular formats; also recorded: did not display a difference dependent on particle size"},
      {"measurement": "Time to filter, fine-milled compared with regular samples (in words)", "setting": "[2]; 1- and 5-minute intervals", "result": "consistently longer for the fine-milled samples"},
      {"measurement": "weight of unfiltered sample", "setting": "[2]; Fine-milled, filtered at 1-minute interval, listed as Creatine monohydrate, Monohydrate", "result": 0.33, "unit": "g"},
      {"measurement": "weight of unfiltered sample", "setting": "[2]; Fine-milled, filtered at 1-minute interval, listed as creatine, Monohydrate", "result": 0.32, "unit": "g"},
      {"measurement": "weight of unfiltered sample", "setting": "[2]; Fine-milled, filtered at 5-minute interval", "result": 0.27, "unit": "g"},
      {"measurement": "weight of unfiltered sample", "setting": "[2]; Regular, filtered at 1-minute interval, listed as Creatine monohydrate, Monohydrate", "result": 0.32, "unit": "g"},
      {"measurement": "weight of unfiltered sample", "setting": "[2]; Regular, filtered at 1-minute interval, listed as creatine, Monohydrate", "result": 0.33, "unit": "g"},
      {"measurement": "weight of unfiltered sample", "setting": "[2]; Regular, filtered at 5-minute interval", "result": 0.40, "unit": "g"},
      {"measurement": "Dry Powder On Filter", "setting": "[3]; Powder type Fine-milled", "result": 0.01, "unit": "g"},
      {"measurement": "Dry Powder On Filter", "setting": "[3]; Powder type Regular", "result": 0.19, "unit": "g"}
    ]}
  ]
}
